“Also recorded” adds a separate entry of the source.
What was measured:
[1] = test system: bone marrow derived cells (BMDCs)
Source text: Six-week old C57BL/6 female mice (Jackson Laboratoiries, Bar Harbor, Mass.) were used as bone marrow donors. The mice were euthanized by a ketamine hydrochloride (Bioniche, Belleville, ON) and xylazine (Rompum, Bayer's Inc, Toronto, ON) injections. Total bone marrow cells were collected from femurs and tibia, pooled, and washed twice with phosphate-buffered saline (PBS, Invitrogen corp., Carlsbad, Calif.) contained 2% fetal bovine serum (FBS, Hyclone Laboratories, Logan, Utah). All the bone marrow derived cells (BMDCs) were plated in 6-wells culture plates (Corning, Corning, N.Y.) precoated with rat fibronectin (Calbiochem, San Diego, Calif.), in Hematopoietic Growth Medium (HPGM Lonza, Walkersvelle, Md.) contained 2% fetal bovine serum (FBS, Hyclone Laboratories) and antibiotics (1% penicillin-streptomycin, Invitrogen corp.). Cells were grown in presence of 10 ng/mL platelet derived growth factor (PDGF, Peprotech. Inc, Rocky Hill, N.J.) and 10 ng/mL […] (EGF, Peprotech. Inc.) during the first 7 days. The experimental protocol was approved by the animal care committee of the Montreal Heart Institute.
BMDCs were cultured and isolated as described above. At day 7, complete culture medium was replaced by an incomplete culture medium: HPGM medium, 2% fetal bovine serum ([…] EGF and PDGF), and 1% antibiotics (penicillin and streptomycin) with or without E2 (10^−10 M to 10^−6 M) (Sigma) and/or rapamycin (10^−11M to 10^−6 M) (LC Laboratories, Woburn, Mass.) or paclitaxel (10^−11M to 10^−6 M) (LC laboratories) for another 7 days. In the case of combined treatment, the E2 was added 24 h prior the addition of the drug. First medium change was performed four days after plating and each following three days for a total of 14 days in culture.
After this treatment, the cells were removed from the 6-well culture plate using a 0.02% solution of (ethylenedinitrilo) tetraacetic acid (EDTA, Sigma) and diluted 1:1 in Trypan blue (Invitrogen corp.) before cell count with a hemacytometer (Hausser Bright-line). Total cells number, white cells and blue stained cells were counted. The proliferation rate was defined as the total number of cells over the number of cells at day 0 of the initiation of the treatment. The survival rate was defined as the number of white cells among the total cell population. The mortality rate was defined as the percentage of blue cells (dead cells) among the total cell population. […] The combination assay was achieved by a 24-hour pretreatment of BMDCs with different concentrations of E2 (10^−8 to 10^−10 M) and the drug was added at its IC50 concentration for a one week treatment. After this time, cells were processed as described above.

ERβ = assay: Western blot, ERβ expression in BMDCs / mBMPC; format: cell-based, mouse
Method: (§1) Membranes were stripped with Re-Blot Plus™ (International Chemicon) and total protein expression was determined with a goat polyclonal β-actin (1:1000 dilution, Santa Cruz Biotechnology Inc.).

[2] = test system: bone marrow derived cells (BMDCs); assay: Proliferation assay of BMDCs (cell count with trypan blue); format: cell-based, mouse (C57BL/6 female mice); settings: for IC50: Mus musculus, BMDC, 168 h, one week treatment, cellular count, read-out: IC50 for cell growth
Method: (§2) BMDCs were cultured and isolated as described above.
After this time, cells were processed as described above.

[3] = test system: bone marrow derived cells (BMDCs); assay: Differentiation profile of BMDCs by flow cytometry; format: cell-based, mouse (C57BL/6 female mice); settings: for percentage of CD117+ cells: E2 alone (10^−9M) or in combination with paclitaxel (5×10^−9 M), one week; for total or sub-populations of CD44+ cells: one week treatment, paclitaxel 5×10^-9M, rapamycin 10^-10M, alone or in combination
Method: as §2
BMDCs were plated and grown during 7 days before treatment (stimulation). Rapamycin (LC Laboratories) or paclitaxel (LC laboratories) were added for a one week treatment at IC50 concentration. Afterward, cells were washed twice in PBS and non specific binding sites were blocked with 5% normal rat serum (Jackson Immunoresearch Laboratories Inc.). To evaluate the differentiation profile of the BMDCs, quadruple stainings were performed as follow: 1) for the HSC allophycocyanin (APC, Caltag Laboratories, Carlsbad, Calif.) conjugated monoclonal rat-anti-mouse CD117, fluorescein isothiocyanate (FITC, BD pharmingen, San Jose, Calif.) conjugated monoclonal rat anti-mouse CD31 (platelet endothelial cell adhesion molecules-1, PECAM), biotin conjugated monoclonal rat anti-mouse CD34 (Bio, BD pharmingen), growth factor receptor-2 (VEGFR2); and 2) for the stromal cells: APC (Abcam Inc., Cambridge Mass.) conjugated monoclonal rat anti-mouse CD90, FITC conjugated (BD pharmingen) monoclonal rat anti-mouse CD44 (hyaluronic acid receptor), PE conjugated monoclonal rat anti-mouse vascular cell adhesion molecule (V-CAM/CD106, Abcam Inc.), biotin (Abcam Inc.) conjugated monoclonal rat anti-mouse CD105 (Endoglin). Corresponding isotype antibodies were used as negative controls; monoclonal rat anti-mouse IgG2a-APC (Abcam Inc.), monoclonal rat anti-mouse IgG2a-FITC, (Abcam Inc.), monoclonal rat anti-mouse IgG2a-PE (BD pharmingen), monoclonal rat anti-mouse IgG2a-Bio (Abcam Inc.). To analyze the biotin conjugated antibody, a secondary antibody streptavidine-ECD (Beckman coulter, Fullerton, Calif.) was used. Data acquisition was performed using 1×10^6 events per sample. Of these events, only low-to-medium FSC (forward scattered channel) and SSC (side scattered channel) singlets were gated for analysis of BM subpopulations. In all cases, gated singlets represented 80 to 90% of acquired events. The acquisition and analysis were performed on an Epics Altra cytometer from Beckman using the EXPO™ 32 system ADC software (Beckman Coulter, Fullerton, Calif.).

[4] = test system: bone marrow derived cells (BMDCs); assay: Necrosis and apoptosis levels (annexin V / propidium iodide flow cytometry); format: cell-based, mouse (C57BL/6 female mice); settings: for number of annexin V positive cells: drug at IC90 dose, 48 hrs
Method: After being cultured and isolated as described above, BMDCs were plated in 12-well culture plate. […] The cells were analyzed 24, 48 and 72 hours later after staining with FITC-conjugated annexin V (Alexis biochemical, San Diego, Calif.) and propidium iodide (PI, Sigma). Acquisition and analysis were performed on an Epics Altra cytometer as described in the section above “Analysis of the differentiation profile”.
In order to evaluate the effect of E2, paclitaxel or rapamycin on early apoptosis, late apoptosis and necrosis, BMDC were treated with either E2, paclitaxel or rapamycin and stained with annexin V and propodium iodine. Cells positive for annexin V only are considered in the early phases of apoptosis while cells positive for propodium iodine only are in necrosis. Cells which stained for both annexin V and propiodium iodine are in a more advanced apoptotic process (FIG. 6). The effect of E2 on the levels of apoptotic and necrotic cells in rapamycin or paclitaxel-treated cells was evaluated (FIG. 7)

ERα = assay: Western blot, ERα expression in BMDCs / mBMPC; settings: paclitaxel-treated cells, 24 h, 10^−8 and 10^−7M
[5] = test system: ERα and ERβ expressed by BMDCs; assay: Western blot, ratio of ERα expression over ERβ in BMDCs; format: cell-based, mouse (C57BL/6 female mice); settings: 24-hour stimulation, at 10^−8 and 10^−7M
Method: as §1

## C[C@]12CC[C@@H]3c4ccc(O)cc4CC[C@H]3[C@@H]1CC[C@@H]2O [E2, 17-beta-estradiol]
[1]
  dead cells (percentage of dead cells): not affected
  reduction of mortality rate: 7-11%
[1]; 10^−10M E2 added to rapamycin or paclitaxel at IC50, one week, compared to cells treated with the drug only
  improvement of survival rate: about 30%
ERβ; mBMPC, 24-hour stimulation with various doses of E2 (not shown)
  regulation of ERβ expression: No regulation
[2]; one-week treatment with a dose range of E2, compared to cells maintained in HPGM
  number of living cells: not affected
[3]
  percentage of CD117+ cells: tended to increase; also recorded: increases
  total or sub-populations of CD44+ cells: no effect
[3]; listed as Estradiol
  percentage of CD117+ cells: increase
[3]; in the presence of E2 (24 h pre-treatment), paclitaxel 5×10^−9 M
  level (%) of CD117+ cells in paclitaxel-treated BMDCs: higher level
[3]; two weeks in culture including one week with various doses of E2
  number of CD14+ cells: does not influence
[4]; 1 week incubation, alone or in combination with E2, flow cytometry
  apoptotic and necrotic cells rates: no appreciable differences
[4]; E2 combined with rapamycin IC50, 48 hrs, compared to rapamycin IC50 alone
  percentage of annexin V positive cells: tended to reduce
[4]; E2 combined with rapamycin or paclitaxel at IC90, 48 hrs stimulations
  blocking of the drug-induced (IC90) increase of annexin V positive cells: could not be blocked

## CC(=O)O[C@H]1C(=O)[C@@]2(C)[C@H]([C@H](OC(=O)c3ccccc3)[C@]3(O)C[C@H](OC(=O)[C@H](O)[C@@H](NC(=O)c4ccccc4)c4ccccc4)C(C)=C1C3(C)C)[C@]1(OC(C)=O)CO[C@@H]1C[C@@H]2O [paclitaxel]
[1]
  mortality rate, drug alone: not observed
  toxicity on bone marrow derived cells: toxic
ERβ; paclitaxel-treated cells, 24 h, 10^−8 and 10^−7M
  ERβ expression: induction
[2]; BMDCs, one week, very low doses
  effect on proliferation at very low doses: proliferative effect
[2]; BMDCs
  IC50: 5 nM
ERα
  ERα expression: decrease
[3]
  total or sub-populations of CD44+ cells: no effect
[3]; one-week treatment at IC50 concentration
  differentiation profile of CD117+ or CD44+: does not affect
[5]
  drop in ERα/ERβ ratio: up to 50%
[4]
  number of annexin V positive cells: increased significantly

## CO[C@H]1C[C@@H]2CC[C@@H](C)[C@@](O)(O2)C(=O)C(=O)N2CCCC[C@H]2C(=O)O[C@H]([C@H](C)C[C@@H]2CC[C@@H](O)[C@H](OC)C2)CC(=O)[C@H](C)/C=C(\C)[C@@H](O)[C@@H](OC)C(=O)[C@H](C)C[C@H](C)/C=C/C=C/C=C/1C [rapamycin]
[1]
  mortality rate, drug alone: significantly increased
  toxicity on bone marrow derived cells: toxic
[2]; BMDCs
  IC50: 0.1 nM
[3]
  total or sub-populations of CD44+ cells: no effect
[4]
  number of annexin V positive cells: increased significantly

Reference: patent US20100247602A1, “METHOD OF REDUCING THE EFFECTS OF CYTOSTATIC DRUGS ON BONE MARROW DERIVED CELLS, AND METHODS OF SCREENING” (priority 2007, published 2010)
